This note sets out measurements from ChEMBL document CHEMBL5579823, “Discovery of 7-alkoxybenzofurans as PDE4 inhibitors with hepatoprotective activity in D-GalN/LPS-induced hepatic sepsis” (Eur J Med Chem, 2024).

Data set [1] deals with Mus musculus. Put plainly: Hepatoprotective activity in GalN/LPS-induced C57BL/6J mouse hepatic sepsis model at 3 mg/kg, IG administered once daily for 3 days followed by GalN/LPS addition 1 hr post-last dose measured after 4 hrs by hematoxylin and eosin staining based light microscopy. Format: functional, organism-based. As to conditions: time 3.0 day.
Data set [2] can be described thus: Half-life in Sprague-Dawley rat at 5 mg/kg, iv by LC-MS/MS analysis. Format: ADME, organism-based. The conditions noted are these: in vivo.
Data set [3] deals with T1, 3',5'-cyclic-AMP phosphodiesterase 4B (Homo sapiens, UniProt Q07343). Put plainly: Inhibition of recombinant human N-terminal GST-tagged PDE4B1 (1 to 736 residues) expressed in Sf9 insect cells using FAM-cyclic-3',5'-AMP as substrate measured after 1 hr by fluorescence polarization assay. On the technique in general: Fluorescence polarisation rises when a labelled molecule tumbles more slowly, as on binding a larger partner.

For data set [4], the target named is cGMP-inhibited 3',5'-cyclic phosphodiesterase 3B (Homo sapiens) (UniProt Q13370). Put plainly: Inhibition of recombinant human N-terminal GST-tagged PDE3B (592 to 1112 residues) expressed in Sf9 insect cells at 10 uM using FAM-cyclic-3',5'-AMP as substrate measured after 1 hr by fluorescence polarization assay relative to control.
Data set [5] concerns the target cGMP-specific 3',5'-cyclic phosphodiesterase (Homo sapiens) (UniProt O76074). Put plainly: Inhibition of PDE5A (unknown origin) at 10 uM using FAM-cyclic-3',5'-AMP as substrate measured after 1 hr by fluorescence polarization assay relative to control.
The target of data set [6] is High affinity 3',5'-cyclic-AMP phosphodiesterase 7A (Homo sapiens) (UniProt Q13946). Put plainly: Inhibition of PDE7A (unknown origin) at 10 uM using FAM-cyclic-3',5'-AMP as substrate measured after 1 hr by fluorescence polarization assay relative to control.
For data set [7], the target named is High affinity cGMP-specific 3',5'-cyclic phosphodiesterase 9A (Homo sapiens) (UniProt O76083). Put plainly: Inhibition of human N-terminal GST-tagged full-length PDE9A2 expressed in baculovirus infected Sf9 insect cells at 10 uM using FAM-cyclic-3',5'-AMP as substrate measured after 1 hr by fluorescence polarization assay relative to control.
Data set [8] deals with cGMP-inhibited 3',5'-cyclic phosphodiesterase 3B (Homo sapiens) (UniProt Q13370). Put plainly: Inhibition of recombinant human N-terminal GST-tagged PDE3B (592 to 1112 residues) expressed in Sf9 insect cells at 20 uM using FAM-cyclic-3',5'-AMP as substrate measured after 1 hr by fluorescence polarization assay relative to control.
The target of data set [9] is cGMP-specific 3',5'-cyclic phosphodiesterase (Homo sapiens) (UniProt O76074). Put plainly: Inhibition of PDE5A (unknown origin) at 20 uM using FAM-cyclic-3',5'-AMP as substrate measured after 1 hr by fluorescence polarization assay relative to control.
Data set [10] has as its target High affinity 3',5'-cyclic-AMP phosphodiesterase 7A (Homo sapiens) (UniProt Q13946). Put plainly: Inhibition of PDE7A (unknown origin) at 20 uM using FAM-cyclic-3',5'-AMP as substrate measured after 1 hr by fluorescence polarization assay relative to control.
In data set [11] the target is High affinity cGMP-specific 3',5'-cyclic phosphodiesterase 9A (Homo sapiens) (UniProt O76083). Put plainly: Inhibition of human N-terminal GST-tagged full-length PDE9A2 expressed in baculovirus infected Sf9 insect cells at 20 uM using FAM-cyclic-3',5'-AMP as substrate measured after 1 hr by fluorescence polarization assay relative to control.
Data set [12] in a line: MRT(0 to t) in Sprague-Dawley rat at 5 mg/kg, iv by LC-MS/MS analysis. The conditions noted are these: in vivo. Format: ADME, organism-based.
A short description of data set [13]: Cmax in Sprague-Dawley rat at 5 mg/kg, iv by LC-MS/MS analysis. The data set is classed as ADME, organism-based. As to conditions: in vivo.
Data set [14] can be described thus: AUC (0 to t) in Sprague-Dawley rat at 5 mg/kg, iv by LC-MS/MS analysis. The data set is classed as ADME, organism-based. As to conditions: in vivo.
A short description of data set [15]: AUC (0 to infinity) in Sprague-Dawley rat at 5 mg/kg, iv by LC-MS/MS analysis. The data set is classed as ADME, organism-based. As to conditions: in vivo.
Data set [16] can be described thus: Clearance in Sprague-Dawley rat at 5 mg/kg, iv by LC-MS/MS analysis. Format: ADME, organism-based. The conditions noted are these: in vivo.
A short description of data set [17]: Volume of distribution in Sprague-Dawley rat at 5 mg/kg, iv by LC-MS/MS analysis. Format: ADME, organism-based. The conditions noted are these: in vivo.
A short description of data set [18]: Half-life in Sprague-Dawley rat at 5 mg/kg, po by LC-MS/MS analysis. The data set is classed as ADME, organism-based. As to conditions: in vivo.
Data set [19] in a line: MRT(0 to t) in Sprague-Dawley rat at 5 mg/kg, po by LC-MS/MS analysis. Format: ADME, organism-based. The conditions noted are these: in vivo.
Data set [20] can be described thus: Cmax in Sprague-Dawley rat at 5 mg/kg, po by LC-MS/MS analysis. The conditions noted are these: in vivo. Format: ADME, organism-based.
The nature of data set [21]: Tmax in Sprague-Dawley rat at 5 mg/kg, po by LC-MS/MS analysis. Format: ADME, organism-based. The conditions noted are these: in vivo.
Data set [22] in a line: AUC(0 to t) in Sprague-Dawley rat at 5 mg/kg, po by LC-MS/MS analysis. Format: ADME, organism-based. As to conditions: in vivo.
A short description of data set [23]: AUC(0 to infinity) in Sprague-Dawley rat at 5 mg/kg, po by LC-MS/MS analysis. Format: ADME, organism-based. As to conditions: in vivo.
Data set [24] can be described thus: Clearance in Sprague-Dawley rat at 5 mg/kg, po by LC-MS/MS analysis. The data set is classed as ADME, organism-based. The conditions noted are these: in vivo.
Data set [25] can be described thus: Volume of distribution in Sprague-Dawley rat at 5 mg/kg, po by LC-MS/MS analysis. Format: ADME, organism-based. The conditions noted are these: in vivo.
Data set [26] is described as follows: Oral bioavailability in Sprague-Dawley rat at 5 mg/kg by LC-MS/MS analysis. The data set is classed as ADME, organism-based. As to conditions: in vivo.
Data set [27] concerns Mus musculus. Put plainly: Hepatoprotective activity in GalN/LPS-induced C57BL/6J mouse hepatic sepsis model assessed as reduction in necrotic morphology at 1 to 3 mg/kg, IG administered once daily for 3 days followed by GalN/LPS addition 1 hr post-last dose measured after 4 hrs by hematoxylin and eosin staining based light microscopy. Format: functional, organism-based. The conditions noted are these: dose 1-3 mg/kg, time 3.0 day.

Data set [28] concerns Mus musculus. Put plainly: Hepatoprotective activity in GalN/LPS-induced C57BL/6J mouse hepatic sepsis model assessed as reduction in hepatomegaly at 1 to 3 mg/kg, IG administered once daily for 3 days followed by GalN/LPS addition 1 hr post-last dose measured after 4 hrs by hematoxylin and eosin staining based light microscopy. Format: functional, organism-based. As to conditions: dose 1-3 mg/kg, time 3.0 day.

Data set [29] relates to Mus musculus. Put plainly: Hepatoprotective activity in GalN/LPS-induced C57BL/6J mouse hepatic sepsis model assessed as reduction in aggregation of inflammatory cells at 1 to 3 mg/kg, IG administered once daily for 3 days followed by GalN/LPS addition 1 hr post-last dose measured after 4 hrs by hematoxylin and eosin staining based light microscopy. The data set is classed as functional, organism-based. The conditions noted are these: dose 1-3 mg/kg, time 3.0 day.

Data set [30] deals with Mus musculus. Put plainly: Hepatoprotective activity in GalN/LPS-induced C57BL/6J mouse hepatic sepsis model assessed as reduction in ALT level at 1 to 3 mg/kg, IG administered once daily for 3 days followed by GalN/LPS addition 1 hr post-last dose measured after 4 hrs. The conditions noted are these: dose 1-3 mg/kg, time 3.0 day. Format: functional, organism-based.
Data set [31] deals with Mus musculus. Put plainly: Hepatoprotective activity in GalN/LPS-induced C57BL/6J mouse hepatic sepsis model assessed as reduction in AST level at 1 to 3 mg/kg, IG administered once daily for 3 days followed by GalN/LPS addition 1 hr post-last dose measured after 4 hrs. Format: functional, organism-based. The conditions noted are these: dose 1-3 mg/kg, time 3.0 day.
Data set [32] deals with High affinity cAMP-specific 3',5'-cyclic phosphodiesterase 8A (Homo sapiens) (UniProt O60658). Put plainly: Inhibition of human N-terminal GST-tagged full-length PDE8A1 expressed in baculovirus infected Sf9 insect cells at 10 uM using FAM-cyclic-3',5'-AMP as substrate measured after 1 hr by fluorescence polarization assay relative to control.
Data set [33] has the same target. Put plainly: Inhibition of human N-terminal GST-tagged full-length PDE8A1 expressed in baculovirus infected Sf9 insect cells at 20 uM using FAM-cyclic-3',5'-AMP as substrate measured after 1 hr by fluorescence polarization assay relative to control.
Data set [34] addresses T1, 3',5'-cyclic-AMP phosphodiesterase 4B. Put plainly: Inhibition of PDE4B1 (unknown origin).
Data set [35] deals with T2, 3',5'-cyclic-AMP phosphodiesterase 4D (Homo sapiens, UniProt Q08499). Put plainly: Inhibition of PDE4D7 (unknown origin).
Data set [36] concerns the target T2, 3',5'-cyclic-AMP phosphodiesterase 4D. Put plainly: Inhibition of human N-terminal GST-tagged PDE4D7 (2 to 748 residues) expressed in baculovirus infected Sf9 insect cells using FAM-cyclic-3',5'-AMP as substrate measured after 1 hr by fluorescence polarization assay.
The nature of data set [37]: Oral bioavailability in mouse at 5 mg/kg by LC-MS/MS analysis. Format: ADME, organism-based. As to conditions: in vivo.

Molecules are shown by their SMILES. Calls of active or inactive are those of the source. The calls are words filed in the database; no cut-off is given here. A value given as a limit tells only on which side of the number the result lay.

T1 sequence (Q07343 whole entry, the tested form may be a part): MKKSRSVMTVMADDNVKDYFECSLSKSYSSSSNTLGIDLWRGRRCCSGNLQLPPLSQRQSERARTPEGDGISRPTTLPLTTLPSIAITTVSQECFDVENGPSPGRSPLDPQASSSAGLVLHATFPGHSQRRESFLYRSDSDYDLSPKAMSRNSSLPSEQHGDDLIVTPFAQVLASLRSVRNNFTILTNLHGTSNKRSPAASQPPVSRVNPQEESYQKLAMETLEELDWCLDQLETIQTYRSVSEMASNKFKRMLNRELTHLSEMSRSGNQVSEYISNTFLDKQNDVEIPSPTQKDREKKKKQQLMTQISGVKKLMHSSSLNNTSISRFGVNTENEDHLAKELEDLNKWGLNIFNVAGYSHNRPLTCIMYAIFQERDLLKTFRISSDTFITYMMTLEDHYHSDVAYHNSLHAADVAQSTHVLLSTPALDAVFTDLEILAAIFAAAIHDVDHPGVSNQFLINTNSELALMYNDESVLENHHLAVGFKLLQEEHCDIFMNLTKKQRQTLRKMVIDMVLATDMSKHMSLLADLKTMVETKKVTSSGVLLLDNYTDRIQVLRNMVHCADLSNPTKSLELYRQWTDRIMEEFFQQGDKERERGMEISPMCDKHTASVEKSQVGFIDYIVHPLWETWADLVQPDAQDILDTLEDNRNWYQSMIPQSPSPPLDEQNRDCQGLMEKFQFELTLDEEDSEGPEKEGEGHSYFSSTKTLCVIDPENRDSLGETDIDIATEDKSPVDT
Chain of High affinity cAMP-specific 3',5'-cyclic phosphodiesterase 8A (Homo sapiens) (O60658 whole entry, looked up): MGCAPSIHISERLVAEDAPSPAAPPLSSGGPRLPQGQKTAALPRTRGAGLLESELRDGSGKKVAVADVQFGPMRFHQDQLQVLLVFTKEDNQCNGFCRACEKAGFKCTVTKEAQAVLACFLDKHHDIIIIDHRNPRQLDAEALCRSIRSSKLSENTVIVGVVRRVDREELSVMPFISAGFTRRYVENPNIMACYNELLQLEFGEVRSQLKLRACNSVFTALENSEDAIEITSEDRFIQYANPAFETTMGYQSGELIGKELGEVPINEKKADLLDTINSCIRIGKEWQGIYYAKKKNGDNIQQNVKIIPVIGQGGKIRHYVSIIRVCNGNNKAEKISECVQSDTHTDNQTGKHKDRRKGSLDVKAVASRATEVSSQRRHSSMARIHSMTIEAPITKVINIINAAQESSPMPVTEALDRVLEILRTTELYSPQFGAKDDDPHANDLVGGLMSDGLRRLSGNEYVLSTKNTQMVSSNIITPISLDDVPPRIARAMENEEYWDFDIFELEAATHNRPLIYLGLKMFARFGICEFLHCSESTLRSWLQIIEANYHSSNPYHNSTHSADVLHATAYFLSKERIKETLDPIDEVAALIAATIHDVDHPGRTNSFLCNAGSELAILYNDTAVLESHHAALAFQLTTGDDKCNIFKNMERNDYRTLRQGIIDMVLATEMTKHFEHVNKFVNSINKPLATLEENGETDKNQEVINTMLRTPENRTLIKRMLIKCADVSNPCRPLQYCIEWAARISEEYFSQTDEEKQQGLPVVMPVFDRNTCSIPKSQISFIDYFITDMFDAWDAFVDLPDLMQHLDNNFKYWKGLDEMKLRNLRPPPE
Chain of High affinity 3',5'-cyclic-AMP phosphodiesterase 7A (Homo sapiens) (Q13946 whole entry): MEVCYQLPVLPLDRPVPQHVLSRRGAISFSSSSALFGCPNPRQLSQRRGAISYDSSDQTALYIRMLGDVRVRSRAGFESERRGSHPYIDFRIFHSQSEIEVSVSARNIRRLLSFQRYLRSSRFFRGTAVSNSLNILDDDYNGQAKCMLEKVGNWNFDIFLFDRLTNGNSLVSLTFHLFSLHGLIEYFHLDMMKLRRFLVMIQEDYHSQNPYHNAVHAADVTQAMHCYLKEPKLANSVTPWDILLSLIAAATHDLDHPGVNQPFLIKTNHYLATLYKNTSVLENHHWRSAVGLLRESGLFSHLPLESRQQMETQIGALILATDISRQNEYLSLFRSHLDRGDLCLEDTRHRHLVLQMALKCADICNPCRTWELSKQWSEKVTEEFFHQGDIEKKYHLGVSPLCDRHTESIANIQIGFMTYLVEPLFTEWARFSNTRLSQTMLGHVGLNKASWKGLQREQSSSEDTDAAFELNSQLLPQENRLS
Chain of cGMP-inhibited 3',5'-cyclic phosphodiesterase 3B (Homo sapiens) (Q13370 whole entry, looked up, the tested form may be a part): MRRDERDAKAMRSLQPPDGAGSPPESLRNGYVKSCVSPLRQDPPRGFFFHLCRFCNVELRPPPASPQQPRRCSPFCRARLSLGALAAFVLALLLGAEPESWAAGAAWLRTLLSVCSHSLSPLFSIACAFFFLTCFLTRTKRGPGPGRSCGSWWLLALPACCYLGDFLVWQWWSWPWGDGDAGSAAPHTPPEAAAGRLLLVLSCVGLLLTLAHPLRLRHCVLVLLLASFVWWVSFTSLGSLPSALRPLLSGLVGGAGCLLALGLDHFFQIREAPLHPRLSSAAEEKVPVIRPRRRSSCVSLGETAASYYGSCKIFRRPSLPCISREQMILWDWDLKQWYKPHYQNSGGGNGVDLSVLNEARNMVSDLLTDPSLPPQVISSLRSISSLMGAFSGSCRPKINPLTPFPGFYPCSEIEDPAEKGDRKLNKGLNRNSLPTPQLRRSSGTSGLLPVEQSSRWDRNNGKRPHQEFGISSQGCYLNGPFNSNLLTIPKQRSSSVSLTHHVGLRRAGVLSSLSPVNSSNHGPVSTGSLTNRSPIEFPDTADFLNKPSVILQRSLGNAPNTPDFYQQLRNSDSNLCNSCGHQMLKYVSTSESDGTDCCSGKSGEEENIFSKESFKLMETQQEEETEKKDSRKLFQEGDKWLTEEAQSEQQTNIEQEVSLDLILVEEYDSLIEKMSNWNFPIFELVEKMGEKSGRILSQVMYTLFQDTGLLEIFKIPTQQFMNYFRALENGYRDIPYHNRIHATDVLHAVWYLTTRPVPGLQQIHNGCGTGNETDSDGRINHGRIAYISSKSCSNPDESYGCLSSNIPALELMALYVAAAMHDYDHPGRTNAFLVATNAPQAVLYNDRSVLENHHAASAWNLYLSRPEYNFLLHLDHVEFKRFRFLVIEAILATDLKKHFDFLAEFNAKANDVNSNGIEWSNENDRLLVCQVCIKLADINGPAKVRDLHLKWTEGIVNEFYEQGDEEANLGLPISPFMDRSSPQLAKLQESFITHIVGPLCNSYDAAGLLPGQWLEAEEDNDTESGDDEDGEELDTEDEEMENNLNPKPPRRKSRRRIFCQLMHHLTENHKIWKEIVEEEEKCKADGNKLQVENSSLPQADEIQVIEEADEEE
T2 sequence (Q08499 whole entry, the tested form may be a part): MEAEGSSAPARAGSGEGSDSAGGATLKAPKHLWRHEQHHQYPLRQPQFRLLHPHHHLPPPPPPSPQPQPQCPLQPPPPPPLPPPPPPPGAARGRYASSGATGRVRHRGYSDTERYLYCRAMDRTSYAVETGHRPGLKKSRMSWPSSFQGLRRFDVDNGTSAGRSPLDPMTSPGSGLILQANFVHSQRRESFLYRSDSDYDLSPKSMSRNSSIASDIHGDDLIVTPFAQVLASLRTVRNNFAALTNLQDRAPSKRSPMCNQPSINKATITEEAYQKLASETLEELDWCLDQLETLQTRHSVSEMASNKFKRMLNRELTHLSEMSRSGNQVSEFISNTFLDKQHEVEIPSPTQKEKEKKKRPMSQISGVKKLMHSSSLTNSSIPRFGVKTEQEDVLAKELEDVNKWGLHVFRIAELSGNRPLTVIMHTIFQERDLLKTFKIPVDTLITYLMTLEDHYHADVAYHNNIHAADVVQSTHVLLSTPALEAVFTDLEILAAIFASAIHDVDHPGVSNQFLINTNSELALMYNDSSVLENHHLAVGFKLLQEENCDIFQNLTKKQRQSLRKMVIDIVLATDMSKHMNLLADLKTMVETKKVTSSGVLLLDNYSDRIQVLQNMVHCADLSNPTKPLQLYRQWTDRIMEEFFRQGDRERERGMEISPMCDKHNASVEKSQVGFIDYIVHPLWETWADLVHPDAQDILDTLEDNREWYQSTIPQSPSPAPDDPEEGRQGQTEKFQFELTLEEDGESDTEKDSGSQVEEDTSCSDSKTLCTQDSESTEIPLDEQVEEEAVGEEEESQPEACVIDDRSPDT
Chain of High affinity cGMP-specific 3',5'-cyclic phosphodiesterase 9A (Homo sapiens) (O76083 whole entry, the tested form may be a part): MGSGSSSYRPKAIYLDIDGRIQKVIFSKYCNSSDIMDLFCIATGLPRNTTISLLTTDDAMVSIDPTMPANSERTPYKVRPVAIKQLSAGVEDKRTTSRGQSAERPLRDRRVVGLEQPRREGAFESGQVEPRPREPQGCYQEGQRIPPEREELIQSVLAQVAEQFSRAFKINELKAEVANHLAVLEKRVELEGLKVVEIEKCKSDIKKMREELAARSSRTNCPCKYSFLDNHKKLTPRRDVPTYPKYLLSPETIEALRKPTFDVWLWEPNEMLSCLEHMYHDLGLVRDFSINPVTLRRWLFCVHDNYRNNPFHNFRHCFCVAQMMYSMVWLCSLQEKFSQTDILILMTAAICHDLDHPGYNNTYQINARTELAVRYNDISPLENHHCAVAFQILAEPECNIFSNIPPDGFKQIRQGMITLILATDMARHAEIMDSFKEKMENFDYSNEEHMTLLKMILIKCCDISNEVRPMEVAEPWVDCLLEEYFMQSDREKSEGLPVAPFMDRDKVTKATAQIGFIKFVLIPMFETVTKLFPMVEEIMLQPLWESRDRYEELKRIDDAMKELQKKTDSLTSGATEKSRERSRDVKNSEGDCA

With `COc1ccc(C2CNC(=O)C2)cc1OC1CCCC1` (stereo not drawn), in the data set on Mus musculus [1], the result was Active.

Turning to `COc1ccc(C(=O)Cn2ccnc2)c2cc(C3CC3)oc12`, the results for the t1/2 in data set [2] and in [18] were 1.29 h and 2 h, respectively. In addition, the concentration for half-maximal inhibition (IC50) (as a rule, the midpoint of a concentration-inhibition curve) in [3] was determined as 10 nM. The inhibition (usually how much of the control response was suppressed) was 11% in data set [4]; 9% in data set [5]; 8% in data set [6]; 5% in data set [7]; 23% in data set [8]; 17% in data set [9]. For the same compound, the inhibition in data set [10] amounted to 15%; in [11], 12%; in data set [32] it was 6%; in [33] it was 14%. In addition, the MRT last (usually a mean duration of stay, worked out from the concentration-time curve) was 2.31 h in data set [12] and 2.74 h in [19]. Besides, the peak concentration (Cmax) – broadly, the maximum level reached in the sampled fluid or tissue – in data set [13] was 1740 ng/mL; in data set [20] it was 957 ng/mL. Besides, the values for the area under the curve AUC(0-t) in data set [14] and in data set [22] were 5170 ng·h/mL and 3440 ng·h/mL, respectively. Besides, the results for the exposure (AUC) in data set [15] and in [23] were 5299.87 ng·h/mL and 3669.79 ng·h/mL, respectively. For the same compound, the clearance (usually the volume of plasma or blood freed of the substance per unit of time) in data set [16] was 15.8 mL/min/kg. Moreover, the Vd in data set [17] stood at 1.76 L/kg; in [25], 3.91 L/kg. In addition, in [21], the Tmax (usually the time from dosing to the highest level) came out at 0.88 h. Further, in data set [24], the apparent clearance (CL/F) (commonly clearance divided by bioavailability, as obtained after extravascular dosing) is 22.8 mL/min/kg. Further, the bioavailability (usually the share of a dose that reaches the circulation, judged against a reference dose that is usually intravenous) in data set [26] is 66%. Also, the result in the data set on Mus musculus [27], with Mus musculus [28], with Mus musculus [29], in the data set with Mus musculus [30] and in the data set on Mus musculus [31] was Active.

As to `CCNc1cc(C(=O)C2CCCC2)ccc1OC`, the IC50 in data set [34] was 110 nM; in data set [35], 1610 nM.

Consider `CC(C)NC(=O)c1ccc(OC(F)F)c(OCC2CC2)c1`, for which the concentration for half-maximal inhibition (IC50) amounted to 47 nM in data set [36] and 31 nM in data set [3]. Besides, the bioavailability in data set [37] was below 5%.
